This is an account of results in US20100119620A1, “SUPPRESSING MICROBIAL GROWTH IN PULP AND PAPER” (priority 2006, published 2010).

Data set [1] concerns Sphaerotilus natans (ATCC 1529). The data set is described as follows: Mean Biocidal Concentration for 100% kill of filamentous test isolate in buffered water (pH 7.2). It counts as cell-based. As for the experimental part:
Two biocide solutions were evaluated and included NaOCl and NaOCl mixed with urea at a 1:1 molar ratio. The unstabilized NaOCl solution was 3% as Cl2 in water. To prepare the stabilized chlorine solution we blended 5.0 mL NaOCl (3% as Cl2 in water) with 5.0 mL of an aqueous solution of urea and sodium hydroxide (0.5M urea in 5% NaOH). In the case of the stabilized chlorine the NaOCl and urea were mixed prior to introduction to buffered water (pH 7.2) inoculated with approximately 1×10^5 bacterial filaments/mL of the filamentous test isolate. The filamentous test isolate used in this evaluation was Sphaerotilus natans (ATCC 1529). The Mean Biocidal Concentration was identified as the test chlorine concentration in ppm of total chlorine (Cl2) required for 100% kill of the filamentous test isolate.

Data set [2] is described as follows: Halogen residuals (total and free) measured using DPD reagent after blending NaOCl with urea/NaOH. Format: physicochemical. The method, then: We blended 5.0 mL NaOCl (3% as Cl2 in water) with 5.0 mL of an aqueous solution of urea and sodium hydroxide (0.5M urea in 5% NaOH). To achieve a 2:1 molar ratio of chlorine to urea we blended 5.0 mL NaOCl (3% as Cl2 in water) with 5.0 mL of an aqueous solution of urea and sodium hydroxide (0.25M urea in 5% NaOH). Halogen residuals were measured using DPD reagent, and were recorded 3 minutes after mixing with the reagent.
Because of the higher yield, less halogen is required to achieve the desired anti-microbial effect under these test conditions. […] The advantages of increased yield and improved anti-microbial activity are shown in Example 2.

Data set [3] concerns bacteria native to the process water sample. The data set is described as follows: Bacterial density in paper process water (coated groundwood mill, pH 7.9) dosed with halogen, with re-challenge. Format: cell-based. As for the experimental part:
The unstabilized bleach solution was 3% as Cl2 in water. To prepare the stabilized chlorine solution we blended 5.0 mL NaOCl (3% as Cl2 in water) with 5.0 mL of an aqueous solution of urea and sodium hydroxide (0.5M urea in 5% NaOH). We then blended 5.0 mL NaOCl (3% as Cl2 in water) with 5.0 mL of an aqueous solution of urea and sodium hydroxide (0.25M urea in 5% NaOH). This yielded a 2:1 molar ratio of chlorine to urea.
Paper process water was collected from a mill in the Northeastern US producing coated groundwood printing and writing grades (pH 7.9). Samples were dosed with halogen and plated after one and four hours. Following the four-hour sampling, process water was challenged with 1% (volume/volume) of untreated process water and samples were plated again after 24 hours.

[4] abbreviates: pH after mixing 9.8, recorded 3 minutes after mixing with DPD reagent.

For the compound `[Na+].[O-]Cl` [NaOC1, sodium hypochlorite], the “Mean Biocidal Concentration S. natans” value in data set [1] (contact time 0.5 hours), in data set [1] (contact time 1 hour), in data set [1] (contact time 3.5 hours) and in data set [1] (contact time 9 hours) was 5 ppm Total C12 in each case. Besides, the “Free Halogen (% Yield)” value in data set [2] (setting [4]), in data set [2] (pH after mixing 13.0) and in data set [2] (pH after mixing 13.5) was 100 % Yield throughout. In addition, the “Total Halogen (% Yield)” value in data set [2] (setting [4]), in data set [2] (pH after mixing 13.0) and in data set [2] (pH after mixing 13.5) was 100 % Yield in each case. Further, the “Bacterial Density” value in data set [3] (2.5 ppm Total C12, contact time 1 hour) came out at 2 log 10 CFU/mL; in data set [3] (2.5 ppm Total C12, contact time 4 hours) it was 3.5 log 10 CFU/mL; in data set [3] (2.5 ppm Total C12, contact time 24 hours, after challenge with 1% (v/v) untreated process water at 4 hours), 7.4 log 10 CFU/mL; in data set [3] (10 ppm Total C12, contact time 1 hour), 2 log 10 CFU/mL; in data set [3] (10 ppm Total C12, contact time 4 hours), 2 log 10 CFU/mL; in data set [3] (10 ppm Total C12, contact time 24 hours, after challenge with 1% (v/v) untreated process water at 4 hours), 7.3 log 10 CFU/mL.
